Experimental data from patent US11884710B2, “Peptide compounds and methods of use in wound healing” (priority 2013, dated 2024).
Where two headings read alike, the source gives them in different places. Square brackets hold non-standard residues; d marks the D form. Ends that are not written are not given here. PEG2 = NCCOCCOCCC(=O)O

Experiments:
[1] = test system: Pseudomonas clinical isolate B64; test: BIOSCREEN C growth assay, peptide plus antibiotic combinations; type: cell-based, Pseudomonas aeruginosa; settings: for MIC: Pseudomonas
Method: FIGS. 28A and 28B show the effect of BCC002-5R-MP (SEQ ID NO:21) in combination with Cefotaxime on MIC using Pseudomonas clinical isolate B64. Cefotaxime (Cefo) and peptide combinations included a constant amount of Cefotaxime (2.81 μg/ml) with suboptimal amounts of peptide (0, 0.34, 1.01, and 3.04 μg/ml). […] FIG. 28B is a histogram showing Fractional area (FA), which is an indication of the MIC.
FIG. 29B is a histogram showing Fractional area (FA), which is an indication of the MIC.
FIGS. 30A and 30B show the effect of BCC02-5R-MP (SEQ ID NO:21) in combination with Levofloxacin (Levo) and peptide combinations included a constant amount of Levofloxacin (3.6 μg/ml) with suboptimal amounts of peptide (0, 0.34, 1.01, 3.04 μg/ml). […] FIG. 30B is a histogram showing Fractional area (FA), which is an indication of the MIC.
The peptide and antibiotics were set up in the wells of the microtiter plate at starting ratios of MIC equivalents of antibiotic:peptide at 3:1, 1:1, and 1:3. They were serially diluted to concentrations well below suboptimal/sublethal levels of the antibiotic and peptide. The organism was added (1×10^5 CFU/well), the BIOSCREEN C™ assay (Growth Systems USA, Piscataway, N.J.) was performed, and data was collected over 24 hours.

[2] = test system: Pseudomonas aeruginosa ATCC 27853; test: In vitro bactericidal assay, P. aeruginosa ATCC 27853 (FIGS. 12-14); type: cell-based; settings: for bactericidal effectiveness concluded by extrapolation: even at substantially lower concentrations of the peptide
Method: (§1) Each of the test peptides was used at 25, 12.5 6.25, and 3.12 μM. The gentamicin was used at 4 μg/ml. 1×10^6/ml Pseudomonas aeruginosa ATCC® 27853™ (American Type Culture Collection, Manassas, Va.) were incubated with the peptides, negative buffer control (tryptone saline), and positive control gentamicin for 180 minutes at pH 7.2. 50 μl aliquots were plated out on agar plates and incubated overnight. Colony forming units were counted after overnight incubation and CFU/ml calculated.
as §1, with “12.5,” for “12.5”, “5.5.” for “7.2.”
FIG. 14 is a comparison of bactericidal activity of CAP37 peptides 120-146WR (SEQ ID NO:30), 120-146WH (SEQ ID NO:31), 120-146QR (SEQ ID NO:28), 120-146QH (SEQ ID NO:29), 120-146QR-5RMP (SEQ ID NO:32), and 120-146QH-5RMP (SEQ ID NO:33) for Pseudomonas aeruginosa ATCC® 27853™ (American Type Culture Collection, Manassas, Va.). 1×10^6/ml Pseudomonas aeruginosa ATCC® 27853™ were incubated with the peptides at 150, 75, and 37.5 μg/ml and negative buffer control (tryptone saline) for 180 minutes at pH 5.5. 50 μl aliquots were plated out on agar plates and incubated overnight. Colony forming units were counted after overnight incubation and CFU/ml calculated.
(§2) For FIGS. 10-13, in vitro bactericidal assays were performed using a starting inoculum of 1×10^6 CFU/ml of the bacterial suspension. The CFU remaining at the end of the 60-180 minute incubation was determined, and the data was plotted as log reduction in CFU/ml.
(§3) In particular, each of the test peptides (CAP37 peptides 120-146WR, 120-146WH, and 95-122 (SEQ ID NOS:30, 31, and 26, respectively)) was used at 25, 12.5, 6.25, and 3.12 μM. Gentamicin was used at 4 μg/ml. 1×10^6/ml Acinetobacter baumannii ATCC® BAA-747™ or Pseudomonas aeruginosa ATCC® 27853™ (American Type Culture Collection, Manassas, Va.) were incubated with the peptides, negative buffer control (tryptone saline), and positive control gentamicin at pH 5.5 or 7.2. A 60 minute incubation was used for Acinetobacter baumannii ATCC® BAA-747™, while a 180 minute incubation was used for Pseudomonas aeruginosa ATCC® 27853™. 50 μl aliquots were plated out on agar plates and incubated overnight. Colony forming units were counted after overnight incubation and CFU/ml calculated.
For FIG. 14, 1×10^6/ml Pseudomonas aeruginosa ATCC® 27853™ were incubated with each of the test peptides (CAP37 peptides 120-146WR, 120-146WH, 120-146QR, 120-146QH, 120-146QR-5RMP, and 120-146QH-5RMP (SEQ ID NOS:30, 31, 28, 29, 32, and 33, respectively)) at 150, 75, and 37.5 μg/ml, or negative buffer control (tryptone saline), for 180 minutes at pH 5.5. 50 μl aliquots were plated out on agar plates and incubated overnight. Colony forming units were counted after overnight incubation and CFU/ml calculated.

[3] = test system: human corneal epithelial cell (HCEC); test: HCEC chemotaxis, modified Boyden chemotaxis chamber; type: cell-based; settings: for HCEC migration compared with the whole CAP37 protein, in words: 120-146QH at 10^−6 M and 10^−8 M, 120-146QR concentration not stated; for migration of HCECs vs buffer control, in words: 3 hours at 37° C.
Method: The effect of buffer control (0.1% BSA in Gey's buffer), heparin binding-epidermal growth factor (HB-EGF, 50 ng/ml), recombinant CAP37 (rCAP37, 250 ng/ml), 120-146QH (10^−12M, 10^−10 M, 10^−8 M, 10^−6M, and 10^−4M,) and 120-146QR (10^−10M, 10^−8M, 10^−6M, and 10^−4M) on HCEC chemotaxis was determined by the modified Boyden chemotaxis chamber method. HCEC chemotaxis was measured in response to HB-EGF, rCAP37, and peptides 120-146QH (SEQ ID NO:29) and 120-146QR (SEQ ID NO:28) after incubation for 3 hours at 37° C. Chemotaxis is expressed as a percent migration. The buffer control (no chemoattractant) is arbitrarily assigned the value of 100% migration. Data are expressed as means±SEM and are calculated from 6 observations for each test point. **P<0.01 by Wilcoxon signed-rank test as compared to controls.
Chemotaxis: Chemotaxis assays were performed using the modified Boyden chemotaxis chamber assay. Peptide 120-146QH was used at 10^−4 M, 10^−6 M, 10^−8 M, 10^−10 M, and 10^−12 M, and peptide 120-146QR was used at 10^−4 M, 10^−6 M, 10^−8M, and 10^−10M.

[4] = test system: Acinetobacter baumannii ATCC BAA-747; test: In vitro bactericidal assay, A. baumannii ATCC BAA-747 (FIGS. 10-11); type: cell-based; settings: 60 minutes, peptides 3.12-25 μM, gentamicin 4 μg/ml
Method: as §1, with “6.25” for “6.25,”, “Acinetobacter baumannii” for “Pseudomonas aeruginosa”, “BAA-747™” for “27853™”, “60” for “180”, “5.5.” for “7.2.”
as §1, with “6.25” for “6.25,”, “Acinetobacter baumannii” for “Pseudomonas aeruginosa”, “BAA-747™” for “27853™”, “60” for “180”
as §2, §3

[5] = test system: full thickness excisional wounds; test: Swine full thickness excisional dermal wound model; type: in vivo; settings: for Mean Wound Healing (%): topical 3 mg/ml, 0.20 ml daily
Method: In this Example, peptide compounds of the presently disclosed inventive concepts were evaluated as to their activity on the dermal wound healing process in a clinically relevant swine full thickness excisional wound model. Three different peptide formulations (Group B, Peptide 95-122 (SEQ ID NO:26); Group C, Peptide 120-146WH (SEQ ID NO:31); and Group D, Peptide 120-146QH-5RMP (SEQ ID NO:33)) were each evaluated at the same concentration (3 mg/ml). Sterile saline served as the control (Group A).
(§4) Full thickness excisional wounds were induced on the dorsum of swine (N=3) using a 1.0 cm biopsy punch. Treatments were administered (0.20 ml) to each wound (N=6 wounds per group), and the wounds were dressed with standard occlusive dressing ([…]™, 3M Corporation, St. Paul, Minn.). Treatments were reapplied daily and dressings changed. Clinical wound healing observations and wound area (2 mm) measurements were performed on days 0, 3, 5, 7, 10, and 14 post-wounding. Wound area (2 mm) data were expressed as percentage (%) of wound healing. Animals were terminated on day 14 with wounds harvested and processed for histological evaluation. […] All peptide formulation treatment groups healed faster with greater rate of closure and re-epithelialization over time, as compared to the saline control (Group A).

[6] = test system: full thickness excisional wounds; test: Histopathology of swine dermal wounds; type: in vivo; parameters: Inflammation, mean histopathology score / Angiogenesis, mean histopathology score / Granulation, mean histopathology score / Epithelization, mean histopathology score: scale not given here
Method: The characteristics that were measured are required to indicate features of a well-healed wound. Inflammation should be low and re-epithelialization high.
as §4
The histology correlated with the clinical observations. […] There were minimal differences in the amount or character of granulation tissue, inflammation, and angiogenesis. All the wounds were well filled and vascularized.

[7] = antibiotic alone, 1×10^5 CFU/well, 24 hours, read-out: MIC
[8] = wounds harvested on day 14, 3 mg/ml

C[C@H]1COc2c(N3CCN(C)CC3)c(F)cc3c(=O)c(C(=O)O)cn1c23 [Levofloxacin]
MIC [1, 7]: 15 µg/mL | MIC ([1]; in the presence of 3.04 μg/ml of peptide BCC02-5RMP, read-out: MIC of Levofloxacin with peptide): 3.5 µg/mL

(AEEP)-(AEEP)-RRRRGTRCQVAGWGSWHSGGRLSRFPRFVNVR ([PEG2][PEG2]RRRRGTRCQVAGWGSWHSGGRLSRFPRFVNVR) [120-146WH-5RMP]
predicted killing capabilities [2]: superior killing capabilities | bactericidal effectiveness concluded by extrapolation [2]: highly effective

CO/N=C(\C(=O)N[C@@H]1C(=O)N2C(C(=O)O)=C(COC(C)=O)CS[C@H]12)c1csc(N)n1 [Cefotaxime]
bactericidal impact on growth curve, in words ([1]; Cefotaxime alone at 2.8 μg/ml): very little bactericidal impact | MIC [1, 7]: 15 µg/mL

(AEEP)-(AEEP)-RRRRGTRCQVAGWGSWRSGGRLSRFPRFVNVR ([PEG2][PEG2]RRRRGTRCQVAGWGSWRSGGRLSRFPRFVNVR) [120-146WR-5RMP]
predicted killing capabilities [2]: superior killing capabilities | bactericidal effectiveness concluded by extrapolation [2]: highly effective

GTRCQVAGWGSQRSGGRLSRFPRFVNV (listed as Homo sapiens) [Peptide 120-146QR]
activity in in vitro killing assays, in words ([2]; FIG. 14, pH 5.5, 180 minutes): relatively inactive | HCEC migration compared with the whole CAP37 protein, in words [3]: less than the migration obtained with the whole protein | migration of HCECs vs buffer control, in words ([3]; peptide at 10^−6 M and 10^−8 M): significantly increase migration of HCECs

gentamicin [reference compound]
bactericidal activity, in words ([4]; pH 5.5): unable to kill the bacteria | bactericidal activity, in words ([4]; pH 7.2): active against the bacteria | bactericidal activity, in words ([2]; 120-146WR at 25 μM, gentamicin 4 μg/ml): highly active | reduction of CFU/ml ([2]; pH 5.5, 180 minutes, gentamicin 4 μg/ml): 2 log | bactericidal activity, in words ([2]; pH 5.5, 180 minutes, peptides 3.12-25 μM, gentamicin 4 μg/ml): not as effective as the peptides

GTRCQVAGWGSQHSGGRLSRFPRFVNV (derivative of peptide of Homo sapiens CAP37 protein) [Peptide 120-146QH]
activity in in vitro killing assays, in words ([2]; FIG. 14, pH 5.5, 180 minutes): relatively inactive | HCEC migration compared with the whole CAP37 protein, in words [3]: comparable to the migration obtained with the whole CAP37 protein | migration of HCECs vs buffer control, in words ([3]; peptide at 10^−4 M, 10^−6 M, 10^−8 M, and 10^−10 M): significantly increase migration of HCECs

(AEEP)-(AEEP)-RRRRGTRCQVAGWGSQHSGGRLSRFPRFVNVR ([PEG2][PEG2]RRRRGTRCQVAGWGSQHSGGRLSRFPRFVNVR) [120-146QH-5RMP]
reduction in CFU ([2]; FIG. 14, pH 5.5, 180 minutes, even at the lower concentration (75 μg/ml)): ~6 log | Mean Wound Healing (%) ([5]; Day 0): 0.0% | Mean Wound Healing (%) ([5]; Day 3): 22.5% | Mean Wound Healing (%) ([5]; Day 5): 34.1% | Mean Wound Healing (%) ([5]; Day 7): 64.1% | Mean Wound Healing (%) ([5]; Day 10): 93.7% | Mean Wound Healing (%) ([5]; Day 14): 98.0% | percentage of wound healing vs saline control, in words ([5]; days 10 and 14 post-wounding, 3 mg/ml): significant (p<0.05) increase in the percentage of wound healing | epidermal resurfacing and maturation vs saline control, in words ([6]; day 14 post-wounding): greater extent of epidermal resurfacing and maturation of the epidermis | Angiogenesis, mean histopathology score [6, 8]: 1.3 | Epithelization, mean histopathology score [6, 8]: 4.0 | Granulation, mean histopathology score [6, 8]: 4.0 | Inflammation, mean histopathology score [6, 8]: 0.5
